Data reported in US20090257988A1, “METHODS AND COMPOSITIONS FOR ACCELERATING THE GENERATION OF REGULATORY T CELLS EX VIVO” (USC Stevens, Hughes Center, priority 2008, published 2009).
“Also recorded” adds a separate entry of the source.

How the values were obtained:
naïve CD4+ cells [1] = test: FOXP3 expression by flow cytometry in naïve CD4+ cells stimulated with anti-CD3/CD28 beads; type: cell-based, human
Text: FIG. 1 is a typical example of FOXP3 expression at day 6 of cultures of non-regulatory T cells. In the experiments represented in this figure, naïve CD4+ cells were stimulated with 3/28 beads (1 bead per 10 T cells) with (right panel) or without (left panel) TGF-β for 6 days.
This inhibitor blocks TGF-β type I receptor signaling. The figures in FIG. 2A provide data from flow cytometry analysis of stimulated CD4+ cells. Naïve CD4+ cells were stimulated with anti-CD3/CD28 beads for 5 or 6 days in medium only (left-most panel), in the presence of 5 ng/ml TGF-β (middle panel) or with 1 μM azacytidine (right-most panel). The graphs also show data from cells stimulated with and without ALK5i (10 μM).
FIG. 3A provides flow cytometry data from naïve CD4 cells stimulated with anti-CD3/CD28 beads for 5 or 6 days in (in order of the panels from left to right) medium alone, in medium containing TGF-β, in medium containing azacytidine, and in medium containing azacytidine and TGF-β. The arrows indicate the […] after stimulation with anti-CD3/anti-CD28.
Naïve CD4+ cells were stimulated with anti-CD3/28 beads as described above. […] FOXP3 expression among CD4+CD25+ cells was determined by flow cytometry. FIG. 5A is a bar graph showing the indicated mean±SEM for 5 independent experiments. FIG. 5B is representative of experiments in 0.1 μM ATRA.
The traces identified with arrows indicate data from cells expressing FOXP3 after stimulation, and percentage of FOXP3 expressing cells is indicated in each figure.

responder T cells = test: Suppressive activity of stimulated CD4+ cells on proliferation of CFSE-labeled responder T cells; type: cell-based, human; conditions: FIG. 4; cells stimulated with vs without azacytidine; ratio 1:10 to responder cells, soluble anti-CD3, 3 days
Protocol: Each population of stimulated cells was assayed for suppressive activity by culturing the cells with responder T cells labeled with carbofluorescein diacetate succinimydil ester (CFSE) at a ratio of 1:10. The cells were stimulated with soluble anti-CD3 for 3 days and proliferation of the responder cells was measured by dilution of CFSE.
The induced Tregs were added to T respond cells (1:4 ratio) and suppressive activity was calculated.

CD4+ cells = test: Proliferation of cultured CD4+ cells upon re-stimulation; type: cell-based, human; conditions: after 6 days of culture
Text: A further phenotypic property of nTregs is poor proliferative responsiveness, which is often accompanied by lowered production of certain pro-proliferation cytokines, such as IL-2. Other cytokines, such as IL-4, IFNγ and TFN-α are also associated with proliferation, although they are generally produced in low levels even in proliferating cells. Proliferation response can be measured using methods known in the art, such as thymidine uptake assays and assays of carboxyfluorescein succinimidyl ester (CFSE) dilution.
As discussed above, one phenotypic property of nTregs is poor proliferative responsiveness. Human naïve CD4+ cells stimulated with IL-2 and TGF-β become FOXP3+, but are only partially differentiated suppressor cells. […] Since the only source of pro-proliferative cytokines are the iTregs themselves, the lack of proliferation by azacytidine-treated cells is consistent with poor cytokine production, which is a distinguishing characteristic of nTregs.

[2] = tested on: memory CD4+ cells (CD45RO+); test: Stimulation of memory CD4+ cells (CD45RO+) with or without azacytidine (Example 7); type: cell-based
Protocol: In addition to naïve CD4+ cells (also referred to as CD45RA+ cells), memory CD4+ cells (CD45RO+) are stimulated and assessed for the effect of azacytidine and azacytidine+retinoic acid on their phenotypic properties. These memory CD4+ cells represent a resting but previously activated population. The cells are stimulated with anti-CD3/anti-CD28 beads (at 1 in 10) with or without azacytidine (1 μM), azacytidine combined with all-trans retinoic acid and also with or without TGF-β (5 ng/ml). After 6 days, the cells are depleted of stimulating beads and assayed for FOXP3 expression, suppressor activity and proliferative activity. Greater than 50% of the stimulated cells express FOXP3. Enhanced FOXP3 expression in cells cultured in medium alone may be due to TGF-β provided by non-T cells in the culture.
Remaining cells are restimulated with anti-CD3/anti-CD28 (at 1 in 10) with or without fresh azacytidine and/or azacytidine plus retinoic acid, such that there is a group from each CD4+ subset that is exposed to azacytidine/azacytidine+retinoic acid for the first time. After a further 6 days, the cells are assayed again for FOXP3 expression, suppressor activity and proliferative activity.

naïve CD4+ cells [3] = test: Surface marker phenotype (CD45RO, CD103, CD127) of stimulated naïve CD4+ cells; type: cell-based, human; conditions: FIG. 7; after 6 days of stimulation
Text: Naïve T cells display the CD45RA+ marker and lack CD45RO. […] Finally, nTregs characteristically express the αEβ7 integrin (CD103) induced by TGF-β.

naïve CD4+ cells [4] = test: Membrane-bound TGF-β staining after re-stimulation of naïve CD4+ cells; type: cell-based, human; conditions: FIG. 8; 6 days with agents, re-stimulated with anti-CD3/28 beads
Text: Naïve CD4+ cells were stimulated with agents indicated for 6 days and re-stimulated with anti-CD3/28 beads and stained with fluorochrome-conjugated anti-TGF-β for membrane-bound TGF-β.

CD4+GFP-cells = test: FOXP3 induction in CD4+GFP- cells of GFP-FOXP3 mice (Example 10); type: cell-based; conditions: CD4+GFP- cells sorted from GFP-FOXP3 mice
Protocol: This assessment utilizes mice engineered to express a GFP-FOXP3 fusion protein. CD4+GFP-cells isolated by cell sorting are stimulated in the presence or absence of regulatory compositions containing azacytidine and regulatory compositions containing azacytidine and retinoic acid. Stimulation is also tested with such regulatory compositions with and without TGF-β. […] Purified populations of FOXP3+ cells are isolated by cell sorting. As a positive control, nTregs are also sorted from fresh spleens and lymph nodes. Both iTregs and nTregs cells (5×10^6) are injected into congenic CD45.1-mice. For the azacytidine-generated iTreg there are enough cells to have three to four mice per group. There are at least two mice per group for the nTregs. In some experiments, nTregs are expanded in culture to obtain sufficient numbers of cells.

[5] = azacytidine 1 μM, after repeated stimulation

“2′-Deoxy-5-azacytidine; 5-Aza-2′-deoxycytidine” was tested, and the “FOXP3 expression (percentage of FOXP3 positive cells)” value (naïve CD4+ cells [1]; FIG. 2A, anti-CD3/CD28 beads 5 or 6 days, 1 μM azacytidine, no exogenous TGF-β, vs medium only) was “enhances FOXP3 expression to a similar extent as the enhancement seen with TGF-β; also recorded: markedly augments the percentage of FOXP3 positive cells”, the suppressive activity (responder T cells) was “significantly more suppressive; also recorded: develop suppressive activity” and the proliferation upon re-stimulation (CD4+ cells) was “fail to proliferate upon re-stimulation”. For the same compound, the “FOXP3 expression vs total T cells stimulated without azacytidine” value [2, 5] was “markedly greater” and the “suppressive activity vs total T cells stimulated without azacytidine” value [2, 5] was “markedly greater”.

In the case of TGF-β, the “cells which express FOXP3” value (naïve CD4+ cells [1]; FIG. 1, 3/28 beads (1 bead per 10 T cells), 6 days, with vs without TGF-β) is reported as “twice as many cells which express FOXP3”, the “cells that acquired the CD45RO marker” value (naïve CD4+ cells [3]) is reported as 50% and the “expression of membrane-bound TGF-β” value (naïve CD4+ cells [4]) is reported as “some T cells primed with TGF-β now expressed this cytokine on their cell surface; also recorded: some T cells contacted with TGF-β prior to stimulation now expressed this cytokine on their cell surface”. The “proliferation of stimulated cells” value ([2]; TGF-β 5 ng/ml, 6 days) was “hyperproliferative and expand markedly” and the FOXP3 expression (CD4+GFP-cells) was “induces FOXP3 expression”.

`CC1=C(/C=C/C(C)=C/C=C/C(C)=C/C(=O)O)C(C)(C)CCC1` [retinoic acid, all-trans retinoic acid] was tested, and the “FOXP3 expression in stimulated CD4+ cells” value (naïve CD4+ cells [1]; FIG. 5, retinoic acid added to TGF-β and azacytidine, ATRA 0.1-0.5 μM, 4 days, CD4+CD25+ cells) was “enhances FOXP3 expression”.
